Assay results taken from US20220304907A1, “Oral Care Compositions” (Colgate-Palmolive Company, priority 2019, published 2022).

Tested on: LL-37
Assay: LL-37 expression (qPCR) in OKF6 gingival epithelial cells after overnight treatment
Format: cell-based
Settings: topical application to gingival epithelial cells (GEC)
Procedure: OKF6 Cells (Gingival epithelial cells) were grown in 6 well tissue culture plates. Cells monolayer was treated with indicated doses (FIG. 1) of Vitamin D3 or phenylbutyrate alone or in combinations of two and cells were further incubated in tissue culture incubator for overnight incubation. After overnight incubation, cells were harvested in RNA lysis buffer. Lysates were processed for RNA isolation using Qiagen RNA isolation kit. RNA was processed for c-DNA preparation and further amplified (qPCR) using LL-37 (Hs 01011708_m1), Cyp24A1 (Hs00989018_m1), GAPDH (Hs 99999905_m1) Taqman genes specific probes. QPCR data was analyzed for fold induction of LL-37 expression and relative difference of expressions was plotted. […] As illustrated by the data described in FIGS. 1 and 2, the inventive combinations of the present invention provide a synergistic increase in LL-37 and CYP24A1, respectively.

C=C1/C(=C\C=C2/CCC[C@]3(C)[C@@H]([C@H](C)CCCC(C)(C)O)CC[C@@H]23)C[C@@H](O)C[C@@H]1O [1,25(OH)2D3, 1,25-dihydroxycholecalciferol]
expression of anti-microbial peptide (LL-37) proteins: enhanced expression
